US9073858B2, “Methods of targeted drug development” (priority 2010, dated 2015)
Read-outs that look alike come from different tables or passages of the source.

Tests used:
[1] = test system: epithelial carcinoma A431 cell line; assay: MTT Cell Proliferation Assay, A431 cell line; type: cell-based; settings: for MTT (10 Point follow-up) ratio / MTT-72 h A431/MDBK (ratio): value in brackets; for MTT (10 Point follow-up) ratio: numerically MDBK over A431; for MTT-72 h A431/MDBK (ratio): numerically MDBK value over A431 value
Description: (§1) The following example describes the MTT Cell Proliferation Assay.
(§2) The MTT Cell Proliferation Assay is a colorimetric assay system that measures the reduction of the tetrazolium salt MTT (3-(4,5-dimethylthiazol-2-yl)-2,5-diphenyltetrazolium bromide) into insoluble formazan crystals, produced by the mitochondria of viable cells. […] The color can then be quantified by spectrophotometric means. Among the applications for the method are drug sensitivity, cytotoxicity, response to growth factors, and cell activation. The reduction of tetrazolium salts is now recognized as a safe, accurate alternative to radiometric testing.
(§3) Two replicates on each cell plate and 2 duplicate plates gave 4 individual replicates of each concentration, in each cell line. Concentrations were diluted in 100% DMSO from 25 mM stocks.
(§4) Twelve 96 well plates of each cell line were plated. Plating was done by dislodging cells as in passage protocol, counting on a hemocytometer, re-suspending in standard growth media, and plating using a multichannel pippetor.
(§5) 16 μl of 25 mM stock+34 μl DMSO=8 mM starting concentrations, and serial diluted as with test compounds in same plate. […] Two replicates of each concentrations was run on each cell plate. All compound addition and cell treatments were done using aseptic technique under a laminar flow aseptic hood.
(§6) Control: 0.5% DMSO in treatment media was used as the control.
(§7) MTT dye (Thiazolyl Blue Tetrazolium Bromide, Sigma cat # M5655) stock was prepared in bulk and stored at 4° C. for use: 5 mgs/ml sterile PDS, shielded from light. 4 ul of this stock per 100 uls treatment media per well was used.
(§8) Plates were incubated overnight prior to treatment, with treatment day=Day 0. Compound treatments were prepared prior to washing cells to minimize time cells were dry at room temperature after final aspiration. Compounds were diluted in 100% DMSO in 96 well polypropylene plates:40 μl 25 mM stock+10 μl DMSO=20 mM; 20 μl of 20 mM+30 μl DMSO=8 mM; 20 μl of 8 mM+30 μl DMSO=3.2 mM; 20 μl of 3.2 mM+30 μl DMSO=1.3 mM; 20 μl of 1.3 mM+30 μl DMSO=0.51 mM.
(§9) 5.0 μl/ml were added to treatment media, in sterile, 2.2 ml deep well plates=0.5% dmso final. Ten μl of each dmso concentration was added to 2.0 ml of treatment media and then mixed using a 1200 μl multichannel pipettor. Cell plates were treated from the deep well plates. Treatment media was standard growth media containing 0.5% FBS and standard additions. This reduced FBS concentration allowed for a slower growth rate in cells.
(§10) Media was aspirated from cell plates, and washed with 200 μl/well sterile PBS. Aspirated PBS wash, and cell plates were treated with 200 μl of compound/treatment media per well, and incubated at 37° C., 5% CO2 for 3 days.
(§11) Prior to harvesting, visual observations were made under an inverted microscope. Plates were harvested by: aspirating the growth media; adding back MTT dye/100 μl treatment media; and incubating plates at 37° C. for 1 hour. MTT dye was aspirated. 100 μl/well dmso was added, and then shaken on a Bellco plate shaker for 5 minutes, at 4.5 setting.
(§12) Plates were read in a Tecan Sunrize UV plate reader, at 560 nm. Settings: Read mode, Outside Normal 2 sec; Shake settle time 3 sec. Data is reported as % inhibition, calculated for individual plates using control values from that plate.

EGFR = molecular target: T1, EGFR (Homo sapiens, UniProt P00533); assay: EGFR in-cell Western (ICW) screening protocol; type: cell-based; design: unit not given here; settings: for ICW Screen: initial screen
T1 construct: endogenous in cells; host or cells: A431 cells (ATCC CRL-1555)
Description: The following example describes general EGFR in-cell Western (ICW) screening protocol.
Two cell plates were prepared for each compound plate.
Serum Starvation: The cells were serum starved prior to compound addition. […] The cell plates were incubated at 37° C./5% CO2 for 2 hours.
Prepared compound plates were stored at RT prior to use and at 4° C. long term.
Compound Dilution Plate Preparation: 250 μl of DMEM supplemented with 1 mg/ml BSA (Sigma A3059-10G) was added to the appropriate wells of a 96 well plate to prepare the compound dilution plates. Using a multichannel pipettor, 1.25 μl of compound from the compound plate was transferred into the compound dilution plate.
Compound Addition: The starve media was removed from the cell plates by aspiration. Using a multichannel pipettor, the compound dilution plates were mixed by pipetting up and down three times. 50 μl of mixed, diluted compound was added to each of two rows/columns on each of two cell plates. The cell plates with compound were incubated at 37° C./5% CO2 for 4 hours.
50 μl of 20 or 0 ng/ml EGF was added to the appropriate wells without the removal of compound. The compound and EGF were mixed by pipetting up and down three times.
The plates were incubated at RT for 20 min without shaking. The Fixation Solution was removed by aspiration and the plates washed four times with 200 μl each of Triton Wash Solution (1×PBS, Sigma P3813-10PK, and 0.1% Triton X-100, T8787-50ML) for 5 min with gentle shaking.
The block was removed by aspiration and 50 μl of diluted primary Ab mix was added. The plates were incubated at 4° C. overnight with gentle shaking. The plates were washed five times with 200 μl of PBST (1×PBS, Sigma P3813-10PK, and 0.1% Tween-20, Sigma P9416-50ML) for 5 min each with shaking. 50 μl of diluted secondary Ab mix was added and the plates incubated at RT for 1 h with shaking. The plates were washed 5× with 200 μl of PBST for 5 min each with shaking. One final wash with 200 μl of PBS (Sigma P3813-10PK) for 5 min with shaking was performed prior to scanning.
In some screening assays, the dilution of the secondary Ab conjugates was 1/800 rather than 1/1200.
Plate Scanning: The plates were scanned on an Odyssey Infrared Imaging System from LI-COR Biosciences. The focus offset was set at 3.5 mm and the scanning intensity set at 3 for the 700 channel and 7 for the 800 channel.
Data Analysis: The % of Maximum and % Inhibition values were calculated as follows. 700 Channel=signal for total EGFR (used to control for variation in cell number). 800 Channel=signal for phosphorylated EGFR. 800−EGF=basal level EGFR phosporylation+non-specific signal (no compound). 800+EGF=800−EGF+EGF dependent EGFR receptor phosphorylation (no compound). 700/800com=700 or 800 channel signals with compound. % Maximum={[(800com/700com)−(800−EGF/700−EGF)]/[(800+EGF/700+EGF)−(800−EGF/700−EGF)]}×100%. % Inhibition=100%−(% Maximum).

MDBK line = assay: MTT Cell Proliferation Assay, MDBK line; type: cell-based, bovine
Description: as §1, §2, §3, §4, §5, §6, §7, §8, §9, §10, §11, §12

[2] = Homo sapiens, A-431, 10 point follow-up, first value of pair, read-out: MTT (10 Point follow-up) A431
[3] = Homo sapiens, A-431, 72 h, 72 h, first value of A431/MDBK pair, read-out: MTT-72 h A431
[4] = Bos taurus, MDBK, 10 point follow-up, second value of pair, read-out: MTT (10 Point follow-up) MDBK
[5] = Bos taurus, MDBK, 72 h, second value of A431/MDBK pair, read-out: MTT-72 h MDBK

T1 sequence (P00533 25-1210): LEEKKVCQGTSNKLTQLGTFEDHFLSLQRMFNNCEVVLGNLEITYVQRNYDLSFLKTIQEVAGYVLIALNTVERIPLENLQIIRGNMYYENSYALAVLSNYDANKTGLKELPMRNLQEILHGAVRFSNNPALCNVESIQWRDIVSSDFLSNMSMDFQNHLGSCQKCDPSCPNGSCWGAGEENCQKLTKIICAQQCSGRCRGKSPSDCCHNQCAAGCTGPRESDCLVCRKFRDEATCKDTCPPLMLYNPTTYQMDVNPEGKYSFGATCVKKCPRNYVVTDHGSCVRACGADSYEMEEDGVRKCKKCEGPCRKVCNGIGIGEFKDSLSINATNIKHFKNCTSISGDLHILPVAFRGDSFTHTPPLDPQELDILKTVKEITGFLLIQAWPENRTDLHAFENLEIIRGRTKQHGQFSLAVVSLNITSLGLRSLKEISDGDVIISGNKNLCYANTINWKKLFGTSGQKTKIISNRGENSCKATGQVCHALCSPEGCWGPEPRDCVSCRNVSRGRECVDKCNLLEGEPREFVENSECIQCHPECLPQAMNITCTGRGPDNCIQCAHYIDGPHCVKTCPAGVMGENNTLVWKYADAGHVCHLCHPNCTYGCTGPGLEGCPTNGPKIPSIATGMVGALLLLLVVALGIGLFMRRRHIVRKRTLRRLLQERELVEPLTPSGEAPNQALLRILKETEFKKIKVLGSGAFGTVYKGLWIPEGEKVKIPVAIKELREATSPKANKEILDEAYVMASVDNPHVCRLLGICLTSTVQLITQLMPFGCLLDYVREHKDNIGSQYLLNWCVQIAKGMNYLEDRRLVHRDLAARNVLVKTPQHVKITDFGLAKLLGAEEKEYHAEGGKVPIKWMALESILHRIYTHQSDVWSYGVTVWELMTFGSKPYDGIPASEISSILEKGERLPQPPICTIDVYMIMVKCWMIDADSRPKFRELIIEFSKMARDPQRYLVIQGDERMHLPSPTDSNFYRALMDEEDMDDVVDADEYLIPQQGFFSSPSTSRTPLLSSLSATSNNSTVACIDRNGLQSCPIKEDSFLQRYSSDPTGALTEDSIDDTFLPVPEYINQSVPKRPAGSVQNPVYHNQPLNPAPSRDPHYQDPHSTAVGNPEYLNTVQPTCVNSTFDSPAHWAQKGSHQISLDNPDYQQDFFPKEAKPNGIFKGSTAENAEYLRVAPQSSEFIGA

Row | Structure (SMILES) | IC50 [1, 2] [µM] | IC50 [1, 3] [µM] | ICW Screen (EGFR) | ICW Re-Test (EGFR) | IC50 ([1]; 10 point follow-up, first value of pair, read-out: MTT (10 Point follow-up) A431) [µM] | MTT (10 Point follow-up) ratio ([1]; 10 point follow-up) | MTT-72 h A431/MDBK (ratio) ([1]; 72 h) | IC50 (MDBK line; [4]) [µM] | IC50 (MDBK line; [5]) [µM] | IC50 (MDBK line; 10 point follow-up, second value of pair, read-out: MTT (10 Point follow-up) MDBK) [µM]
1 | Cc1cccc(NC(c2ccccc2C)c2ccc3ccc(C)nc3c2O)n1 (centres unmarked) [compound 10026] |  | 5.22 | 37.03 | 41.06 |  |  | 0.97 |  | 5.19 | 
2 | COc1ccc(C(Nc2cc(C)ccn2)c2ccc3cccnc3c2O)c(OC)c1OC (centres unmarked) [compound 10031] |  | 9.39 | 34.62 |  |  |  | 0.65 |  | 6.09 | 
3 | Oc1c(C(Nc2ccccn2)c2ccccc2F)ccc2cccnc12 (centres unmarked) [compound 10033] | 1.81 | 1.85 | 49.36 | 5.98 |  | 2.44 | 2.49 | 4.43 | 4.62 | 
4 | Cc1ccc2ccc(C(Nc3ccccn3)c3ccc(C)c(C)c3)c(O)c2n1 (centres unmarked) [compound 10034] |  | 12 | 27.1 |  |  |  | 0.60 |  | 7.16 | 
5 | CCc1ccc(C(Nc2ccccn2)c2ccc3cccnc3c2O)cc1 (centres unmarked) [compound 10041] | 1.59 | 2.95 | 45.08 | 3.45 |  | 1.47 | 1.00 | 2.34 | 2.94 | 
6 | O=[N+]([O-])c1ccccc1C(Nc1ccccn1)c1ccc2cccnc2c1O (centres unmarked) [compound 10042] | 9.62 | 1.49 | 47.99 | −8.06 |  | 0.69 | 1.00 | 6.63 | 1.49 | 
7 | Cc1cccc(NC(c2cccc(Cl)c2)c2ccc3cccnc3c2O)n1 (centres unmarked) [compound 10043] | 5.46 |  | 34.63 |  |  | 0.97 |  | 5.29 |  | 
8 | Oc1c(C(Nc2ccccn2)c2ccc(Cl)cc2Cl)ccc2cccnc12 (centres unmarked) [compound 10046] |  |  | 12.78 |  | 1.66 | 1.87 |  |  |  | 3.1
9 | Oc1c(C(Nc2ccccn2)c2ccc(Br)cc2)ccc2cccnc12 (centres unmarked) [compound 10048] | 5.46 |  | 44.94 | 15.3 |  | 0.96 |  | 5.23 |  | 
10 | CCOc1ccccc1C(Nc1ccccn1)c1ccc2ccc(C)nc2c1O (centres unmarked) [compound 10049] |  | 12.2 | 35.57 |  |  |  | 0.94 |  | 11.5 | 
11 | C=CCOc1cccc(C(Nc2ccccn2)c2ccc3cccnc3c2O)c1 (centres unmarked) [compound 10050] |  | 5.39 | 32.11 |  |  |  | 0.97 |  | 5.35 | 

Continued, in another order:

Row | IC50 [1, 2] [µM] | IC50 [1, 3] [µM] | ICW Screen (EGFR) | ICW Re-Test (EGFR) | IC50 ([1]; 10 point follow-up, first value of pair, read-out: MTT (10 Point follow-up) A431) [µM] | Structure (SMILES) | MTT (10 Point follow-up) ratio ([1]; 10 point follow-up) | MTT-72 h A431/MDBK (ratio) ([1]; 72 h) | IC50 (MDBK line; [4]) [µM] | IC50 (MDBK line; [5]) [µM] | IC50 (MDBK line; 10 point follow-up, second value of pair, read-out: MTT (10 Point follow-up) MDBK) [µM]
12 | 4.49 | 5.35 | 33.75 |  |  | Cc1ccccc1C(Nc1ccccn1)c1ccc2cccnc2c1O (centres unmarked) [compound 10019] | 0.71 | 0.98 | 3.21 | 5.25 | 
13 |  | 5.69 | 30.12 |  |  | CCCOc1ccc(C(Nc2ccccn2)c2ccc3cccnc3c2O)cc1 (centres unmarked) [compound 10028] |  | 0.95 |  | 5.38 | 
14 |  | 6.46 | 40.02 | 35.03 |  | Cc1ccnc(NC(c2cc(C)ccc2O)c2ccc3cccnc3c2O)c1 (centres unmarked) [compound 10029] |  | 0.84 |  | 5.42 | 
15 |  | 43 | 32.12 |  |  | Cc1cccc(NC(c2ccc(O)cc2)c2ccc3ccc(C)nc3c2O)n1 (centres unmarked) [compound 10037] |  | 0.42 |  | 18.2 | 
16 |  | 5.75 | 28.31 |  |  | Cc1ccnc(NC(c2ccc3c(c2)OCO3)c2ccc3cccnc3c2O)c1 (centres unmarked) [compound 10038] |  | 0.94 |  | 5.42 | 
17 |  | 13.5 | 27.22 |  |  | Cc1ccc2ccc(C(Nc3ccccn3)c3ccc(F)cc3)c(O)c2n1 (centres unmarked) [compound 10045] |  | 0.73 |  | 9.85 | 
